In the supplement of paper PMC11451515:

Tested on: NOMO1
Assay: cell viability relative to DMSO control; higher = less cytotoxic
Conditions: 48 h
In short: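 NOMO1 or SEM (500 cells/well) or P12-Ichikawa (1000 cells/well) leukemia cells were adapted for at least four passages in each medium. They were seeded in 1536-well plates (5 μl) and pin-dosed with library compounds in DMSO over an 11-point threefold series, 47 μM to 0.79 nM. CellTiter-Glo One luminescence was read after 48 h at 37°C. Viability is the per-plate percentage relative to DMSO wells, with cell-free wells as background.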

[1] = HPLM + 10% dialyzed FBS, 0.000781 µM
[2] = HPLM + 10% dialyzed FBS, 0.00234 µM
[3] = HPLM + 10% dialyzed FBS, 0.00702 µM
[4] = HPLM + 10% dialyzed FBS, 0.0211 µM
[5] = HPLM + 10% dialyzed FBS, 0.0632 µM
[6] = HPLM + 10% dialyzed FBS, 0.19 µM
[7] = HPLM + 10% dialyzed FBS, 0.569 µM
[8] = HPLM + 10% dialyzed FBS, 1.71 µM
[9] = HPLM + 10% dialyzed FBS, 5.12 µM
[10] = HPLM + 10% dialyzed FBS, 15.4 µM
[11] = HPLM + 10% dialyzed FBS, 46.1 µM
[12] = RPMI 5 mM glucose + 10% FBS, 0.000781 µM
[13] = RPMI 5 mM glucose + 10% FBS, 0.00234 µM
[14] = RPMI 5 mM glucose + 10% FBS, 0.00702 µM
[15] = RPMI 5 mM glucose + 10% FBS, 0.0211 µM
[16] = RPMI 5 mM glucose + 10% FBS, 0.0632 µM
[17] = RPMI 5 mM glucose + 10% FBS, 0.19 µM
[18] = RPMI 5 mM glucose + 10% FBS, 0.569 µM
[19] = RPMI 5 mM glucose + 10% FBS, 1.71 µM
[20] = RPMI 5 mM glucose + 10% FBS, 5.12 µM
[21] = RPMI 5 mM glucose + 10% FBS, 15.4 µM
[22] = RPMI 5 mM glucose + 10% FBS, 46.1 µM
[23] = RPMI 5 mM glucose + 10% dialyzed FBS, 0.000781 µM
[24] = RPMI 5 mM glucose + 10% dialyzed FBS, 0.00234 µM
[25] = RPMI 5 mM glucose + 10% dialyzed FBS, 0.00702 µM
[26] = RPMI 5 mM glucose + 10% dialyzed FBS, 0.0211 µM
[27] = RPMI 5 mM glucose + 10% dialyzed FBS, 0.0632 µM
[28] = RPMI 5 mM glucose + 10% dialyzed FBS, 0.19 µM
[29] = RPMI 5 mM glucose + 10% dialyzed FBS, 0.569 µM
[30] = RPMI 5 mM glucose + 10% dialyzed FBS, 1.71 µM
[31] = RPMI 5 mM glucose + 10% dialyzed FBS, 5.12 µM
[32] = RPMI 5 mM glucose + 10% dialyzed FBS, 15.4 µM
[33] = RPMI 5 mM glucose + 10% dialyzed FBS, 46.1 µM

| Compound | cell viability [1] [%] | cell viability [2] [%] | cell viability [3] [%] | cell viability [4] [%] | cell viability [5] [%] | cell viability [6] [%] | cell viability [7] [%] | cell viability [8] [%] | cell viability [9] [%] | cell viability [10] [%] | cell viability [11] [%] | cell viability [12] [%] | cell viability [13] [%] | cell viability [14] [%] | cell viability [15] [%] | cell viability [16] [%] | cell viability [17] [%] | cell viability [18] [%] | cell viability [19] [%] | cell viability [20] [%] | cell viability [21] [%] | cell viability [22] [%] | cell viability [23] [%] | cell viability [24] [%] | cell viability [25] [%] | cell viability [26] [%] | cell viability [27] [%] | cell viability [28] [%] | cell viability [29] [%] | cell viability [30] [%] | cell viability [31] [%] | cell viability [32] [%] | cell viability [33] [%] |
| --- | --- | --- | --- | --- | --- | --- | --- | --- | --- | --- | --- | --- | --- | --- | --- | --- | --- | --- | --- | --- | --- | --- | --- | --- | --- | --- | --- | --- | --- | --- | --- | --- | --- |
| COc1cc([C@@H]2c3cc4c(cc3[C@H](O)[C@H]3COC(=O)[C@@H]23)OCO4)cc(OC)c1OC | 89.1 | 102 | 93.4 | 105 | 91.6 | 76.8 | 32.5 | 26.3 | 33.8 | 23.9 | 25.2 | 84.2 | 87.9 | 86.5 | 99.2 | 92.7 | 85.7 | 39.9 | 12.5 | 19.3 | 16.6 | 16 | 92 | 81.5 | 92.9 | 90 | 93.6 | 91.3 | 47.7 | 20 | 19.4 | 20.2 | 17.5 |
| O=C(Nc1nnc(-c2ccco2)o1)c1cc(-c2ccccc2)nc2ccccc12 | 92.3 | 103 | 117 | 124 | 118 | 120 | 114 | 114 | 65.5 | 18.7 | 6.68 | 107 | 101 | 99.9 | 105 | 100 | 101 | 93 | 111 | 98.3 | 99.3 | 13.7 | 102 | 89.3 | 107 | 96.2 | 103 | 112 | 93.4 | 117 | 118 | 106 | 13.5 |
| Cc1cn([C@H]2C=C[C@@H](CO)O2)c(=O)[nH]c1=O | 105 | 101 | 116 | 123 | 101 | 114 | 125 | 115 | 96.4 | 108 | 107 | 88.6 | 94.3 | 100 | 106 | 98.7 | 111 | 111 | 102 | 116 | 120 | 115 | 106 | 124 | 118 | 112 | 125 | 123 | 122 | 121 | 113 | 129 | 131 |
| CCOC(=O)N1c2ccc(C(F)(F)F)cc2[C@@H](N(Cc2cc(C(F)(F)F)cc(C(F)(F)F)c2)C(=O)OC)C[C@H]1CC | 124 | 149 | 123 | 118 | 124 | 139 | 110 | 109 | 120 | 105 | 110 | 121 | 117 | 105 | 118 | 129 | 113 | 115 | 111 | 114 | 112 | 107 | 110 | 117 | 121 | 115 | 121 | 110 | 103 | 112 | 119 | 109 | 93.7 |
| CN1CCN(c2c(F)cc3c(=O)c(C(=O)O)cn(CCF)c3c2F)CC1 | 97.8 | 107 | 114 | 119 | 101 | 116 | 106 | 124 | 105 | 125 | 96.9 | 101 | 103 | 108 | 109 | 122 | 106 | 104 | 116 | 120 | 114 | 119 | 93.3 | 93.2 | 97.6 | 109 | 106 | 108 | 115 | 111 | 118 | 102 | 104 |
| O=C([O-])C[C@H](O)C[C@H](O)/C=C/c1c(C2CC2)nc2ccccc2c1-c1ccc(F)cc1 | 101 | 104 | 130 | 120 | 125 | 116 | 112 | 132 | 109 | 87.7 | 12 | 108 | 116 | 122 | 114 | 111 | 112 | 116 | 134 | 109 | 97.8 | 23.7 | 114 | 109 | 110 | 122 | 116 | 119 | 129 | 115 | 101 | 86.4 | 22.9 |
| Cc1c(-c2cccc3c(CCCOc4cccc5ccccc45)c(C(=O)O)n(Cc4cccnc4)c23)c(COc2ccc(N3CCN([S+](=O)([O-])N(C)C)CC3)cc2)nn1C | 88.7 | 85.4 | 83.8 | 94.1 | 108 | 86.3 | 85.9 | 74.2 | 89.2 | 73.8 | 55.4 | 92.5 | 97.3 | 80.4 | 85.7 | 87.9 | 94.7 | 90.5 | 87.8 | 74.9 | 79.3 | 85.2 | 97 | 97.1 | 92.5 | 96.1 | 95.9 | 94.1 | 86 | 76.7 | 81.4 | 84.7 | 72.5 |
| COc1cc2ncn(-c3cc(OCc4ccccc4[S+](C)(=O)[O-])c(C#N)s3)c2cc1OC | 101 | 91 | 105 | 101 | 84 | 108 | 92.8 | 95.8 | 82.7 | 81.2 | 68.9 | 90.9 | 89.9 | 97 | 84.6 | 99.7 | 97 | 103 | 88.8 | 82.1 | 90.4 | 73.8 | 107 | 98.6 | 100 | 100 | 90.8 | 98.7 | 95.3 | 101 | 89.4 | 94.8 | 62 |
| O=[N+]([O-])c1ncc[nH]1 | 90.7 | 84.4 | 90.2 | 78.4 | 91 | 97.4 | 89.7 | 89.4 | 80.8 | 91.7 | 75.8 | 86.3 | 85.5 | 90.9 | 84.2 | 90.9 | 87.3 | 84.1 | 76.9 | 80.3 | 85.7 | 74 | 88.5 | 93.7 | 88.7 | 87.2 | 75.8 | 82.5 | 78.6 | 81 | 83.2 | 76.1 | 87.7 |
| N\C1=N\C2=C(N=C[N]2COCCO)C(=O)N1 | 93.1 | 106 | 123 | 112 | 103 | 119 | 104 | 125 | 98.3 | 102 | 73.4 | 106 | 96.8 | 109 | 109 | 103 | 95.4 | 98.1 | 103 | 103 | 97.4 | 96.9 | 112 | 101 | 103 | 97.8 | 93.8 | 113 | 106 | 109 | 107 | 100 | 71.5 |
| Cc1nc2cc(C(=O)N3CCC4(CC3)CC(=O)c3c(cnn3C(C)C)C4)ccc2[nH]1 | 96.7 | 159 | 125 | 124 | 116 | 135 | 134 | 119 | 112 | 135 | 60.9 | 118 | 133 | 116 | 130 | 129 | 124 | 123 | 128 | 135 | 132 | 94.2 |  |  |  |  |  |  |  |  |  |  |  |
| CCC(C)N1\N=C/N(C1=O)C2=CC=C(C=C2)N3CCN(CC3)C4=CC=C(OC[C@H]5CO[C@@](C[N]6C=NC=N6)(O5)C7=CC=C(Cl)C=C7Cl)C=C4 (some centres undefined) | 110 | 98.9 | 117 | 121 | 122 | 97.2 | 108 | 102 | 107 | 90.4 | 86 | 101 | 108 | 113 | 99.6 | 111 | 121 | 93.9 | 101 | 102 | 95.3 | 85.8 | 102 | 104 | 119 | 124 | 111 | 113 | 120 | 103 | 98.9 | 99.6 | 86.2 |
| CCN1C[C@H](C)[N]2C(=C(O)C3=C2\C(=N/N(CC4=CC=C(F)C(=C4)Cl)C3=O)C(=O)NC)C1=O | 107 | 125 | 118 | 126 | 120 | 131 | 98.2 | 92.5 | 96.5 | 58 | 11.9 | 107 | 98.3 | 111 | 111 | 104 | 96 | 97.7 | 99.2 | 96.3 | 80.3 | 11.4 | 106 | 115 | 107 | 121 | 118 | 98.4 | 102 | 111 | 92.6 | 65.6 | 13.9 |
| C[C@@H]1O[C@@H](O[C@H]2C[C@@H](O)[C@]3(CO)[C@H]4[C@H](O)C[C@]5(C)[C@@H](C6=CC(=O)OC6)CC[C@]5(O)[C@@H]4CC[C@]3(O)C2)[C@H](O)[C@H](O)[C@H]1O | 94.8 | 104 | 99 | 81.8 | 32.9 | 14.5 | 9.66 | 8.1 | 8.19 | 8.12 | 6.11 | 93.1 | 95.2 | 109 | 110 | 95.3 | 39.6 | 13.6 | 8.12 | 8.09 | 7.5 | 5.41 | 97.8 | 109 | 103 | 117 | 73.2 | 30 | 11.3 | 6.76 | 6.52 | 6.15 | 5.29 |
| CCN(CC)CCOc1ccc(Cc2ccccc2)cc1 | 97.9 | 102 | 113 | 92.9 | 110 | 106 | 113 | 102 | 74.1 | 21.2 | 14.2 | 92.2 | 92.2 | 94.2 | 106 | 102 | 91.8 | 101 | 91.6 | 83.4 | 68.3 | 57 | 99.1 | 96 | 108 | 108 | 97.8 | 108 | 97.9 | 108 | 97.5 | 91.4 | 78.3 |
